Reference: US20210220376A1, “ADDICTION TREATMENT OF AN ALCOHOL-CONSUMING PATIENT POPULATION” (Amygdala Neurosciences, Inc., priority 2018, published 2021)
pIC50: −log10 of the molar value.

How the values were obtained:
[1] = target: T1, hMAO-A (Homo sapiens, UniProt P21397); settings: read-out: IC50 hMAO-A; cited from earlier work
T1 sequence (P21397 1-527): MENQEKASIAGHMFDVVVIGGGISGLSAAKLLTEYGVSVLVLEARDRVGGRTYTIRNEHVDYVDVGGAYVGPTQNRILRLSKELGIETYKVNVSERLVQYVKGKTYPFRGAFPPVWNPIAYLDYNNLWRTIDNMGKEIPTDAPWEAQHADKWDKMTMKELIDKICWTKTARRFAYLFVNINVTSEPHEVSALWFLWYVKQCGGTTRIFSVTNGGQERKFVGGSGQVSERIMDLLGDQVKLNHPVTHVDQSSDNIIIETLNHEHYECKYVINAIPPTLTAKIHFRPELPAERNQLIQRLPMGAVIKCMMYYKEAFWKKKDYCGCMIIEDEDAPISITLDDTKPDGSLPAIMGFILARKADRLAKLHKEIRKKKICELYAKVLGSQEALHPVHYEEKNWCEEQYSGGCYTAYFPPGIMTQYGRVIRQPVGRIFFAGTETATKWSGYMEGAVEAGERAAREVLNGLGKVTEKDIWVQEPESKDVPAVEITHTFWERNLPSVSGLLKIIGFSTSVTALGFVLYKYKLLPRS

[2] = target: T2, hMAO-B (Homo sapiens, UniProt P27338); settings: read-out: IC50 hMAO-B; cited from earlier work
T2 sequence (P27338 1-520): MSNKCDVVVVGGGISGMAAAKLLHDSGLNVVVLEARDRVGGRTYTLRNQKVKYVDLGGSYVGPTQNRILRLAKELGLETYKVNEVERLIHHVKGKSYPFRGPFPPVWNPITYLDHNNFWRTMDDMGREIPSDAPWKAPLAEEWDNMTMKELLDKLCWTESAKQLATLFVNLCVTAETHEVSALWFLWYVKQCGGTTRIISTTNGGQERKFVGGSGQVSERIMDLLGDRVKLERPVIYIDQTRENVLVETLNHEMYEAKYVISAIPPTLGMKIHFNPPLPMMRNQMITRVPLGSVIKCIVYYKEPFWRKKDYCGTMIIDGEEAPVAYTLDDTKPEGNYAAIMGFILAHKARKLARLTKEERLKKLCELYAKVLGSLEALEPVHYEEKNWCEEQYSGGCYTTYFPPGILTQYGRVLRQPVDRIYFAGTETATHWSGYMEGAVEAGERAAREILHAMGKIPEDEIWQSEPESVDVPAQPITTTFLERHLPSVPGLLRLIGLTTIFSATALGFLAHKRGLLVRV

[3] = Phase 1 study of compound (2) with ethanol: pharmacokinetics of compound (1) and breath alcohol
Source text: Plasma concentrations of compound (1) and BrAC were summarized and listed by treatment, subject and timepoint. Pharmacokinetic parameters derived for compound (1) were also summarized and listed by treatment and subject. Pharmacokinetic parameters were estimated using a non-compartmental approach with a log-linear terminal phase assumption. The trapezoidal rule was used to estimate the area under the curve (linear trapezoidal linear interpolation) and the terminal phase will be estimated by maximizing the coefficient of determination estimated from the log-linear regression model. However, AUC0-∞, AUClast/∞, λz and t1/2 parameters were to be estimated for individual concentration-time profiles only when the terminal log-linear phase could be reliably characterized.
Proportionality analysis was done using a power model. The power model was defined as: […]
A linear model with ln-transformed dose as a continuous effect was fitted. A point estimate and a 90% CI was derived for the slope (β). The parameter could be considered to be dose proportional if the 90% confidence interval of the slope β was within [1+ln(0.8)/ln(r), 1+ln(1.25)/ln(r)], where r=the highest dose studied/the lowest dose (Smith et al., “Confidence interval criteria for assessment of dose proportionality.” Pharm Res. 17 (10):1278-83 (2000)).

[4] = system: alcohol-consuming patient population; settings: 500 mg/day DSF; cited from earlier work

Row | SMILES | pIC50 [1] | pIC50 [2] | further results
1 | Cc1cc(CNC(=O)c2c(Cl)cccc2Cl)ccc1-c1cc[nH]c(=O)c1 [(9), 2,6-dichloro-N-(3-methyl-4-(2-oxo-1,2-dihydropyridin-4-yl)benzyl)benzamide] | < 3.89 | < 3.89 | 
2 | O=C(NCc1ccc(-c2cc(=O)[nH]cc2F)cc1)c1c(Cl)cccc1Cl [(14), 2,6-dichloro-N-(4-(5-fluoro-2-oxo-1,2-dihydropyridin-4-yl)benzyl)benzamide] | < 3.89 | < 3.89 | 
3 | O=C(NCc1ccc(-c2cc[nH]c(=O)c2)cc1)c1c(F)cccc1F [(11), 2,6-difluoro-N-(4-(2-oxo-1,2-dihydropyridin-4-yl)benzyl)benzamide] | < 3.89 | < 3.89 | 
4 | O=C(NCc1ccc(-c2cc[nH]c(=O)c2)cc1)c1c(Cl)cccc1Cl [Compound (1), 2,6-dichloro-N-[4-(2-oxo-1,2-dihydro-pyridin-4-yl)-benzyl]-benzamide] | < 3.89 | < 3.89 | dose proportionality of peak and overall exposure (power model) ([3]; 25 mg to 600 mg dose range): did not increase in a compound (2) dose-proportional manner; peak (Cmax) and overall (AUC) exposure to compound (1) ([3]; following a moderate-fat meal): increased with increasing dose of compound (2); Tmax ([3]; male, human, plasma, po): 3.5 to 5 h; half-life ([3]; male, human, plasma, po): 17 to 27 h
5 | O=C(NCc1ccc(-c2cc[nH]c(=O)c2)cc1F)c1c(Cl)cccc1Cl [(13), 2,6-dichloro-N-(2-fluoro-4-(2-oxo-1,2-dihydropyridin-4-yl)benzyl)benzamide] | < 3.89 | < 3.89 | 
6 | Cn1ccc(-c2ccc(CNC(=O)c3c(Cl)cccc3Cl)cc2)cc1=O [(10), 2,6-dichloro-N-(4-(1-methyl-2-oxo-1,2-dihydropyridin-4-yl)benzyl)benzamide] | < 3.89 | < 3.89 | 
7 | CCN(CC)C(=S)SSC(=S)N(CC)CC [DSF, Disulfuram] |  |  | outcome of safety study [4]: halted prematurely due to severity of DER
8 | Cc1cc(-c2ccc(CNC(=O)c3c(Cl)cccc3Cl)cc2)cc(=O)[nH]1 [(7), 2,6-dichloro-N-[4-(6-methyl-2-oxo-1,2-dihydro-pyridin-4-yl)-benzyl]-benzamide] | < 3.89 | < 3.89 | 
9 | O=C(NCc1ccc(-c2cc[nH]c(=O)c2)cc1)c1c(F)cccc1Cl [(12), 2-chloro-6-fluoro-N-(4-(2-oxo-1,2-dihydropyridin-4-yl)benzyl)benzamide] | < 3.89 | < 3.89 | 
10 | COCCOc1cc(Cl)c(C(=O)NCc2ccc(-c3cc[nH]c(=O)c3)cc2)c(Cl)c1 [(3), 2,6-dichloro-4-(2-methoxyethoxy)-N-(4-(2-oxo-1,2-dihydropyridin-4-yl)benzyl)benzamide] | < 3.89 | < 3.89 | 
11 | O=C(NCc1ccc(-c2cc[nH]c(=O)c2)cc1)c1c(F)ccc(F)c1Cl [(8), 2-chloro-3,6-difluoro-N-(4-(2-oxo-1,2-dihydropyridin-4-yl)benzyl)benzamide] | < 3.89 | < 3.89 | 
12 | Cc1cccc(C)c1C(=O)NCc1ccc(-c2cc[nH]c(=O)c2)cc1 [(6), 2,6-dimethyl-N-(4-(2-oxo-1,2-dihydropyridin-4-yl)benzyl)benzamide] | < 3.89 | < 3.89 | 
13 | Cc1cccc(Cl)c1C(=O)NCc1ccc(-c2cc[nH]c(=O)c2)cc1 [(5), 2-chloro-6-methyl-N-(4-(2-oxo-1,2-dihydropyridin-4-yl)benzyl)benzamide] | < 3.89 | < 3.89 | 
14 | O=C(NCc1ccc(-c2cc[nH]c(=O)c2)cc1)c1cccc(F)c1Cl [(4), 2-chloro-3-fluoro-N-(4-(2-oxo-1,2-dihydropyridin-4-yl)benzyl)benzamide] | < 3.89 | < 3.89 | 
